This passage reports IC50 results from ChEMBL document CHEMBL1641419, “Discovery of pyrazolo[1,5-a]pyrimidine-based CHK1 inhibitors: a template-based approach--part 2” (Bioorg Med Chem Lett, 2011).

Broadly, the IC50 is the concentration at which inhibition is half-maximal.

The target of test [1] is Cyclin-dependent kinase 2/cyclin A (Homo sapiens, UniProt P24941). In words: Inhibition of recombinant CDK2/Cyclin A expressed in insect Sf9 cells assessed as inhibition of [33P]-ATP incorporation into biotinylated histone H1 after 1 hr by liquid scintillation counting.
For test [2], the target named is T1, Serine/threonine-protein kinase Chk1 (Homo sapiens, UniProt O14757).
T1 sequence (O14757 whole entry): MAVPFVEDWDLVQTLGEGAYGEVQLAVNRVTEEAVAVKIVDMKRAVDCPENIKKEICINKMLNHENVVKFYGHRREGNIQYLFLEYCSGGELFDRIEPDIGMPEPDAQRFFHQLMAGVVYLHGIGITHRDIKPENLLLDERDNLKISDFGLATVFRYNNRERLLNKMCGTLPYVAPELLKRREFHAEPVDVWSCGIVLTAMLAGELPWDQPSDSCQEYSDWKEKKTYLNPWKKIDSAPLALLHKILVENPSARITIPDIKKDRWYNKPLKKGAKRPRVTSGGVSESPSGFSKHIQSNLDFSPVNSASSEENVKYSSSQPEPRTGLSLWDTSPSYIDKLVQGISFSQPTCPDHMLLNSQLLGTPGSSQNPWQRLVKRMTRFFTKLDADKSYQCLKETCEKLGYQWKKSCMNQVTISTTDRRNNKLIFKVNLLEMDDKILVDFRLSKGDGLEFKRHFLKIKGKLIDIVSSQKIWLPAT
Description: Inhibition of histidine-tagged recombinant CHK1 expressed in baculovirus expression system after 2 hrs by scintillation proximity assay

Turning to `Cn1cc(-c2cnn3c(N)c(Br)c(C4CCNC4)nc23)cn1` (stereo not drawn), the IC50 worked out at 510 nM in test [1] and 31 nM in test [2].
`Nc1c(Br)c(C2CCCNC2)nc2c(-c3ccoc3)cnn12` (stereo not drawn): the IC50 in test [1] came out at 100 nM.
`Cc1ncc(-c2cnn3c(N)c(Br)c(C4CCCNC4)nc23)s1` (stereo not drawn): the IC50 was 200 nM in test [1] and 8 nM in test [2].
On to `Cn1cc(-c2cnn3c(N)c(I)c(C4CCCNC4)nc23)cn1` (stereo not drawn), for which the IC50 in test [1] amounted to 330 nM.
For the molecule `Cn1cc(-c2cnn3c(N)c(CCO)c(C4CCCNC4)nc23)cn1` (stereo not drawn), the values for the 50% inhibitory concentration (IC50) in test [1] and in test [2] were 48 nM and 26 nM, respectively.
For `CC#Cc1c(C2CCCNC2)nc2c(-c3cnn(C)c3)cnn2c1N` (stereo not drawn), the IC50 in test [1] is 520 nM.
Regarding `Cn1cc(-c2cnn3c(N)c(Br)c(C[C@H]4CCC[C@@H](N)C4)nc23)cn1` (relative stereo), the IC50 in test [1] amounted to 440 nM; in test [2], 5 nM.
In test [2], `Cn1cc(-c2cnn3c(N)c(Br)c(CC4CCCNC4)nc23)cn1` (stereo not drawn) registered an IC50 of 7 nM.
For `Cn1cc(-c2cnn3c(N)c(Br)c(CCN)nc23)cn1`, in test [2], the IC50 stood at 34 nM.
Take `Cn1cc(-c2cnn3c(N)c(-c4ccsc4)c(C4CCCNC4)nc23)cn1` (stereo not drawn): in test [1], the 50% inhibitory concentration (IC50) stood at 2200 nM.
On the same count and under the same terms, in the case of `Cn1cc(-c2cnn3c(N)c(C4CC4)c(C4CCCNC4)nc23)cn1` (stereo not drawn) it was 170 nM; in that of `Cn1cc(-c2cnn3c(N)c(Br)c(C4CNCCS4)nc23)cn1` (stereo not drawn), 150 nM; in that of `CCc1c(C2CCCNC2)nc2c(-c3cnn(C)c3)cnn2c1N` (stereo not drawn), 330 nM.
`Cn1cc(-c2cnn3c(N)c(C#N)c(C4CCCNC4)nc23)cn1` (stereo not drawn): the IC50 in test [1] turned out to be 1700 nM; in test [2], 100 nM.
For the molecule `Cn1cc(-c2cnn3c(N)c(Br)c(-c4cccnc4)nc23)cn1`, the IC50 in test [1] was found to be 1300 nM; in test [2] it was 4000 nM.
As for `Cn1cc(-c2cnn3c(N)c(-c4ccncc4)c(C4CCCNC4)nc23)cn1` (stereo not drawn), the half-inhibitory concentration (IC50) in test [1] stood at 11000 nM.
For the molecule `Nc1c(Br)c(C2CCCNC2)nc2c(-c3cccnc3)cnn12` (stereo not drawn), the IC50 came to 170 nM in test [1] and 17 nM in test [2].
The corresponding values for `Cn1cc(-c2cnn3c(N)c(Br)c(C4CCNCC4)nc23)cn1` are 490 nM and 35 nM.
Turning to `Cn1cc(-c2cnn3c(N)c(-c4cccnc4)c(C4CCCNC4)nc23)cn1` (stereo not drawn), in test [1], the IC50 turned out to be 1500 nM.
Take `Cn1cc(-c2c(C3CCCNC3)nc3c(-c4cnn(C)c4)cnn3c2N)cn1` (stereo not drawn): the figures for the half-inhibitory concentration (IC50) in test [1] and in test [2] were 22000 nM and 100 nM, respectively.
With `Cn1cc(-c2cnn3c(N)c(-c4ccccc4)c(C4CCCNC4)nc23)cn1` (stereo not drawn), the IC50 in test [1] came to 8300 nM.
Turning to `Cn1cc(-c2cnn3c(N)c(Br)c(CC4CCNCC4)nc23)cn1`, the figures for the IC50 in test [1] and in test [2] were 2800 nM and 87 nM, respectively.
Consider `Cn1cc(-c2cnn3c(N)c(-c4cccs4)c(C4CCCNC4)nc23)cn1` (stereo not drawn), for which the IC50 in test [1] is 990 nM.
Same read-out and setting: the value for `Cn1cc(-c2cnn3c(N)c(-c4ccoc4)c(C4CCCNC4)nc23)cn1` (stereo not drawn) was 2300 nM.
As for `Cn1cc(-c2cnn3c(N)c(Cl)c(C4CCCNC4)nc23)cn1` (stereo not drawn), the 50% inhibitory concentration (IC50) worked out at 310 nM in test [1] and 3 nM in test [2].
For the molecule `Cn1cc(-c2cnn3c(N)c(Br)c(C4CCCNC4)nc23)cn1` (stereo not drawn), in test [1], the IC50 was found to be 160 nM.
On to `COC/C=C/c1c(C2CCCNC2)nc2c(-c3cnn(C)c3)cnn2c1N` (stereo not drawn), for which, in test [1], the IC50 was 2200 nM.
`Cn1cc(-c2cnn3c(N)c(Br)c(C4CNCCO4)nc23)cn1` (stereo not drawn): the IC50 in test [1] was 1200 nM; in test [2], 130 nM.
Regarding `Cn1cc(-c2cnn3c(N)c(Br)c(C4CCCCN4)nc23)cn1` (stereo not drawn), the values for the IC50 in test [1] and in test [2] were 28700 nM and 2900 nM, respectively.
`Cn1cc(-c2cnn3c(N)c(Br)c(CC4CCNC4)nc23)cn1` (stereo not drawn) yielded a concentration for half-maximal inhibition (IC50) in test [2] of 7 nM.
